Laboratory results taken from PMC8309759, “A Dual-Sensor-Based Screening System for In Vitro Selection of TDP1 Inhibitors” (Sensors (Basel, Switzerland), 2021).
Where two headings read alike, the source gives them in different places.

How the values were obtained:
[1] = biological target: tyrosyl-DNA phosphodiesterase 1 (TDP1) (Homo sapiens, UniProt Q9NUW8); experiment: fluorescent hairpin DNA sensor (ATTO488/BHQ1) assay with purified human TDP1, 13-point dose response; type: biochemical
[2] = biological target: T1, topoisomerase 1 (TOP1) (Homo sapiens, UniProt P11387); experiment: REEAD cleavage-ligation assay with purified TOP1, […] CPT; type: biochemical
T1 sequence (P11387 2-765): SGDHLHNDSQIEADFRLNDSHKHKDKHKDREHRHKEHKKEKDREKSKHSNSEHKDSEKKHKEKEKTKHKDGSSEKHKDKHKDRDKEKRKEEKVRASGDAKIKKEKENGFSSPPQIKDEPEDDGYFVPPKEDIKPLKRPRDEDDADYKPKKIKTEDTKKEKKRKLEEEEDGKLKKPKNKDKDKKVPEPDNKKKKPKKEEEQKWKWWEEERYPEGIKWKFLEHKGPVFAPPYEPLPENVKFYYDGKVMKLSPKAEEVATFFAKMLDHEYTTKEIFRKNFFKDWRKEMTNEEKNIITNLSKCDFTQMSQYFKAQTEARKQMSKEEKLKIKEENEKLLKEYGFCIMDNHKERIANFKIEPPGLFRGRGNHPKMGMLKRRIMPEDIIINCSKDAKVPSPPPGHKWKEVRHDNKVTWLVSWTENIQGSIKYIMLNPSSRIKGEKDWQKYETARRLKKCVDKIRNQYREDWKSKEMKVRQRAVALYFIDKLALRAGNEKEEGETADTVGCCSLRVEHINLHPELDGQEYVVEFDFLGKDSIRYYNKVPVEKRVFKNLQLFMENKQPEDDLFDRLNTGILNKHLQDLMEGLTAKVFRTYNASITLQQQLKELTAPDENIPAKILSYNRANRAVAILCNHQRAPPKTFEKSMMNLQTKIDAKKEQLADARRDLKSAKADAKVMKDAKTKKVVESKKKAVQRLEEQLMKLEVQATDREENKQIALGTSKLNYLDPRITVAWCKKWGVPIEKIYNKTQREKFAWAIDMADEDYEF

tyrosyl-DNA phosphodiesterase 1 (TDP1), sequence (Q9NUW8 whole entry): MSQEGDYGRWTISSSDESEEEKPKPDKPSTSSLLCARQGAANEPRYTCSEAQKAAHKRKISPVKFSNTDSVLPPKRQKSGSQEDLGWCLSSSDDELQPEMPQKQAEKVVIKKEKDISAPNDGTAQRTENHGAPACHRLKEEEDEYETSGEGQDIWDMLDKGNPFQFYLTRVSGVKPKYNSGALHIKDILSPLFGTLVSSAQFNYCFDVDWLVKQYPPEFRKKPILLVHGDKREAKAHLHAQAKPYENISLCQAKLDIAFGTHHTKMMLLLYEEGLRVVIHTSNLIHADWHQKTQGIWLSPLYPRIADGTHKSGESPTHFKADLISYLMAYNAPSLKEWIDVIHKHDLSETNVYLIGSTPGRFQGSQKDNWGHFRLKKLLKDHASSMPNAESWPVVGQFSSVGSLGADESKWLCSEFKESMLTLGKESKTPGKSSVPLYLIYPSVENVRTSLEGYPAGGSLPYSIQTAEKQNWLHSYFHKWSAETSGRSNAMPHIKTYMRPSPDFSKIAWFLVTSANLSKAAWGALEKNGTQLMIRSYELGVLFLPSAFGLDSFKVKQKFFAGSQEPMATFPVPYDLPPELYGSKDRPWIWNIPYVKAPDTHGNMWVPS

SMILES | IC50 [1] [µM] | further results
O=[N+]([O-])c1ccc(C2CC(c3ccccc3)c3cccc(P(=S)(c4ccccc4)c4ccccc4)c3N2)cc1 (stereo not shown) [PSTHQ-13] | 13.1 | –
CC[C@@]1(O)C(=O)OCc2c1cc1n(c2=O)Cc2cc3ccccc3nc2-1 [CPT, camptothecin] | – | REEAD cleavage-ligation assay with purified TOP1, 80 μM CPT [2]: CPT control is a positive control for TOP1 inhibition.
FC(F)(F)c1ccc(C2CC(c3ccccc3)c3cccc(P(=S)(c4ccccc4)c4ccccc4)c3N2)cc1 (stereo not shown) [PSTHQ-2] | 4.28 | –
COc1ccc(-c2cc(-c3ccc([N+](=O)[O-])cc3)nc3cccnc23)cc1 [NAF-15] | – | IC50 ([1]; read-out: IC50): 37.8 µM
